According to patent US8426179B2, “Synthetic peptide and peptide conjugates and related tissue coupling methods via transglutaminase enzyme” (priority 2007, dated 2013):
“Also recorded” adds a separate entry of the source. Residues, ends and D or L forms follow the SMILES beside them. No end group written: not given here. *: point of attachment. X1 = C[C@]12CCC(=O)C=C1CC[C@@H]1[C@@H]2[C@@H](O)C[C@@]2(C)[C@H]1CC[C@]2(O)C(=O)COC(=O)CCC(=O)*

Tests used:
[1] = Release of hydrocortisone from coupled prodrugs on the articular surface of cartilage
Protocol: After the overnight rinse in Buffer 2 with protease inhibitors and the subsequent washes with Buffer 1, each sample was incubated in 100 μL of sterile Buffer 1, normal bovine synovial fluid, or human osteoarthritic synovial fluid at 37° C. […] At the end of the experiment, the samples were digested and analyzed as previously described.

[2] = Hydrolysis of the hydrocortisone prodrug in normal synovial fluid; format: in vitro ADME, bovine
Protocol: A 30 μL portion of each sample was collected at 0.5, 1, 2, 4, 7, 24, and 48 hours and added to a 60 μL mixture of water:acetonitrile:TFA (79:20:1) to prevent further hydrolysis. This solution also contained 2 mM 6α-methyl prednisolone as an internal standard. The samples were then stored at −20° C. until analyzed with RP-HPLC and eluted with a linear gradient of 24-55% acetonitrile in water with 0.1% TFA. The amount of hydrocortisone hydrolyzed from the prodrug was determined by comparing its peak area to that of 6α-methyl prednisolone. The T50% of the prodrug was calculated from 0.693/S, where S is the mean slope giving the best correlation coefficient in the linear part of the logarithmic curve of unhydrolyzed prodrug (1-[hydrocortisone]) versus time. […] Thirty microliter samples were collected at 10, 20, 30, and 60 minutes and analyzed as previously described.

[3] = tested on: articular surface of cartilage; test: Coupling of hydrocortisone prodrugs to the articular surface of cartilage via tTG; format: biochemical, bovine; settings: in the absence of tTG
Protocol: Modified tissue samples were immersed in tissue freezing media and frozen at −80° C. until use. Tissue slices (25 μm thick) were cut using a cryostat (Microm HM505N, Carl Zeiss) and the freezing media was removed with 3 washes of Buffer 1. Blocking was performed with 4% goat serum in Buffer 1 (blocking buffer) for 1 hour at room temperature. The tissue sections were then incubated with 10 μg/mL mouse anti-hydrocortisone antibody for 1.5 h in the blocking buffer at room temperature, rinsed 3 times with Buffer 1 for 5 minutes each, and then incubated with fluorescein conjugated goat anti-mouse antibody (1/200) in blocking buffer for 1 hour. Samples were rinsed again with Buffer 1 and then imaged using a Leica epifluorescent microscope (λex=495 nm, λem=520 nm for fluorescein) and a SPOT RT digital camera (Diagnostic Instruments, Sterling Heights, Mich.).

cartilage sections = test: Coupling of peptide conjugates to cartilage sections via tTG, fluorescein anti-biotin staining; format: biochemical, bovine
Protocol: Partial depolymerization of glycosaminoglycans in the tissue was accomplished by digesting with chondroitinase ABC at 40 mU/mL in 50 mM Tris, 70 mM sodium acetate and 0.01% bovine serum albumin (BSA) at pH 8 for 30 minutes at 37° C. Samples were then rinsed 3 times with TBS and blocked with 1% BSA in TBS for one hour at room temperature. The tTG reaction conditions used were similar to a previously described method. (See, Aeschlimann D, Wetterwald A, Fleisch H, and Paulsson M. Expression of tissue transglutaminase in skeletal tissues correlates with events of terminal differentiation of chondrocytes. Journal of Cell Biology 1993; 120: 1461-1470.) The cartilage sections were incubated in 500 μL of 50 μM peptide or peptide-PEG conjugate, 0.5 U/mL tTG, 5 mM CaCl2, 2.5 mM dithiothreitol and 100 mM Tris, at pH 8.3 for 30 min at 37° C. Control experiments were performed in the absence of tTG. After completion of the tTG reaction, the solution was removed and samples were rinsed 3 times with 1% BSA in TBS for 5 minutes each. The cartilage sections were then incubated with fluorescein conjugated anti-biotin antibody at 10 μg/mL in 1% BSA in TBS for 2 hours at room temperature. Samples were rinsed 4 times with TBS for 5 minutes each, followed by blocking with 10% donkey serum for 1 hour and incubation with rabbit anti-collagen II antibody in TBS containing 10% donkey serum for 1 hour. The samples were rinsed 3 times with 10% donkey serum in TBS and then incubated with Texas Red conjugated donkey anti-rabbit antibody. Samples were rinsed again with TBS and then imaged using a Leica epifluorescent microscope (λex=495 nm, λem=520 for fluorescein and λex=596 nm, λem=620 for Texas Red) and a SPOT RT digital camera (Diagnostic Instruments, Sterling Heights, Mich.).
Images were analyzed using Metamorph image analysis software (Molecular Devices, Sunnyvale, Calif.). Fluorescein fluorescence was measured at three randomly selected areas of the middle zone on each cartilage section image and then averaged. A similar procedure was utilized to determine Texas Red fluorescence. The fluorescein fluorescence intensity was then normalized to the fluorescence of the Texas Red for each cartilage section image in order to account for potential ECM differences between sections. Finally, the average green fluorescence for each peptide-PEG conjugate was then normalized by dividing by the red fluorescence.

cartilage = settings: for average depth of peptide coupling: with tTG, chondroitinase ABC digested cartilage, along the cut edge
Protocol: For the coupling of peptide conjugates to cartilage sections, osteochondral plugs were extracted from adult bovine metacarpophalangeal joints using a hole punch with a diameter of 0.793 cm. Samples were then frozen in tissue freezing media and stored at −80° C. until use. Vertical sections (25 μm), which included the articular surface as well as a portion of the underlying bone, were cut using a cryostat (Microm HM505N, Carl Zeiss) and the freezing media was removed with 3 washes of Tris buffered saline (TBS) (50 mM Tris, 100 mM NaCl) at pH 7.4. For the penetration studies, four millimeter by two millimeter rectangular samples of cartilage were excised from adult bovine metacarpophalangeal joint to a depth of 200-250 microns from the articular surface. Samples were frozen as described earlier for later use, at which time they were thawed and rinsed in TBS.
Four millimeter by two millimeter rectangular samples of cartilage were thawed and rinsed, after which the chondroitinase ABC digestion and tTG reactions with the peptide and peptide-PEG conjugates were performed as stated above. […] The samples were then frozen in tissue freezing media followed by cutting using a cryostat. Twenty micron thick vertical sections were collected from each cartilage piece, rinsed in TBS, blocked with 1% BSA TBS containing 0.1% Tween (TBST), and incubated with peroxidase conjugated anti-biotin antibody at 5 μg/mL in 1% BSA in TBS-T for 2 hours at room temperature. Samples were rinsed 4 times with TBS and 4 times with distilled water. Finally, the anti-biotin antibody was detected using a DAB kit which contains the peroxidase substrate 3,3′-diaminobenzidine yielding a brown color. Samples were imaged using a Leica microscope (brightfield) and a SPOT RT digital camera.
Adobe Photoshop (Adobe, Inc, San Jose, Calif.) was used to measure the depth to which the peptide and peptide-PEG conjugates were detected. The depth of staining into the cartilage along the cut surface perpendicular to the articular surface was measured at distances of 60, 120 and 180 microns from the articular surface for each sample. The average depth of staining for each sample was calculated from these three measurements. For each peptide and peptide-PEG conjugate, an overall mean depth of staining was determined from the measurements of three samples.
In a separate series of experiments, 2 mm by 4 mm by 200-250 μm pieces of cartilage were incubated with each peptide-PEG conjugate and tTG. At the completion of the reaction, the cartilage pieces were frozen and sectioned and the coupled peptide conjugates were detected with a perioxidase anti-biotin antibody. The bound antibody was detected with DAB reagent which forms a brown precipitate in the presence of perioxidase. […] The depth of peptide penetration and coupling was measured along the cut edge at 60, 120, and 180 μm from the articular surface as shown schematically in FIG. 6.

Fibronectin = target: T1, Fibronectin (Homo sapiens, UniProt P02751); test: Reaction of peptide conjugates with cartilage ECM protein in solution via tTG; format: biochemical; settings: 500 μM conjugate, 0.05 U/mL tTG, 30 min at 37° C.
T1 construct: purchased Sigma, St. Louis, Mo
T1 sequence (P02751 32-2477, species assumed): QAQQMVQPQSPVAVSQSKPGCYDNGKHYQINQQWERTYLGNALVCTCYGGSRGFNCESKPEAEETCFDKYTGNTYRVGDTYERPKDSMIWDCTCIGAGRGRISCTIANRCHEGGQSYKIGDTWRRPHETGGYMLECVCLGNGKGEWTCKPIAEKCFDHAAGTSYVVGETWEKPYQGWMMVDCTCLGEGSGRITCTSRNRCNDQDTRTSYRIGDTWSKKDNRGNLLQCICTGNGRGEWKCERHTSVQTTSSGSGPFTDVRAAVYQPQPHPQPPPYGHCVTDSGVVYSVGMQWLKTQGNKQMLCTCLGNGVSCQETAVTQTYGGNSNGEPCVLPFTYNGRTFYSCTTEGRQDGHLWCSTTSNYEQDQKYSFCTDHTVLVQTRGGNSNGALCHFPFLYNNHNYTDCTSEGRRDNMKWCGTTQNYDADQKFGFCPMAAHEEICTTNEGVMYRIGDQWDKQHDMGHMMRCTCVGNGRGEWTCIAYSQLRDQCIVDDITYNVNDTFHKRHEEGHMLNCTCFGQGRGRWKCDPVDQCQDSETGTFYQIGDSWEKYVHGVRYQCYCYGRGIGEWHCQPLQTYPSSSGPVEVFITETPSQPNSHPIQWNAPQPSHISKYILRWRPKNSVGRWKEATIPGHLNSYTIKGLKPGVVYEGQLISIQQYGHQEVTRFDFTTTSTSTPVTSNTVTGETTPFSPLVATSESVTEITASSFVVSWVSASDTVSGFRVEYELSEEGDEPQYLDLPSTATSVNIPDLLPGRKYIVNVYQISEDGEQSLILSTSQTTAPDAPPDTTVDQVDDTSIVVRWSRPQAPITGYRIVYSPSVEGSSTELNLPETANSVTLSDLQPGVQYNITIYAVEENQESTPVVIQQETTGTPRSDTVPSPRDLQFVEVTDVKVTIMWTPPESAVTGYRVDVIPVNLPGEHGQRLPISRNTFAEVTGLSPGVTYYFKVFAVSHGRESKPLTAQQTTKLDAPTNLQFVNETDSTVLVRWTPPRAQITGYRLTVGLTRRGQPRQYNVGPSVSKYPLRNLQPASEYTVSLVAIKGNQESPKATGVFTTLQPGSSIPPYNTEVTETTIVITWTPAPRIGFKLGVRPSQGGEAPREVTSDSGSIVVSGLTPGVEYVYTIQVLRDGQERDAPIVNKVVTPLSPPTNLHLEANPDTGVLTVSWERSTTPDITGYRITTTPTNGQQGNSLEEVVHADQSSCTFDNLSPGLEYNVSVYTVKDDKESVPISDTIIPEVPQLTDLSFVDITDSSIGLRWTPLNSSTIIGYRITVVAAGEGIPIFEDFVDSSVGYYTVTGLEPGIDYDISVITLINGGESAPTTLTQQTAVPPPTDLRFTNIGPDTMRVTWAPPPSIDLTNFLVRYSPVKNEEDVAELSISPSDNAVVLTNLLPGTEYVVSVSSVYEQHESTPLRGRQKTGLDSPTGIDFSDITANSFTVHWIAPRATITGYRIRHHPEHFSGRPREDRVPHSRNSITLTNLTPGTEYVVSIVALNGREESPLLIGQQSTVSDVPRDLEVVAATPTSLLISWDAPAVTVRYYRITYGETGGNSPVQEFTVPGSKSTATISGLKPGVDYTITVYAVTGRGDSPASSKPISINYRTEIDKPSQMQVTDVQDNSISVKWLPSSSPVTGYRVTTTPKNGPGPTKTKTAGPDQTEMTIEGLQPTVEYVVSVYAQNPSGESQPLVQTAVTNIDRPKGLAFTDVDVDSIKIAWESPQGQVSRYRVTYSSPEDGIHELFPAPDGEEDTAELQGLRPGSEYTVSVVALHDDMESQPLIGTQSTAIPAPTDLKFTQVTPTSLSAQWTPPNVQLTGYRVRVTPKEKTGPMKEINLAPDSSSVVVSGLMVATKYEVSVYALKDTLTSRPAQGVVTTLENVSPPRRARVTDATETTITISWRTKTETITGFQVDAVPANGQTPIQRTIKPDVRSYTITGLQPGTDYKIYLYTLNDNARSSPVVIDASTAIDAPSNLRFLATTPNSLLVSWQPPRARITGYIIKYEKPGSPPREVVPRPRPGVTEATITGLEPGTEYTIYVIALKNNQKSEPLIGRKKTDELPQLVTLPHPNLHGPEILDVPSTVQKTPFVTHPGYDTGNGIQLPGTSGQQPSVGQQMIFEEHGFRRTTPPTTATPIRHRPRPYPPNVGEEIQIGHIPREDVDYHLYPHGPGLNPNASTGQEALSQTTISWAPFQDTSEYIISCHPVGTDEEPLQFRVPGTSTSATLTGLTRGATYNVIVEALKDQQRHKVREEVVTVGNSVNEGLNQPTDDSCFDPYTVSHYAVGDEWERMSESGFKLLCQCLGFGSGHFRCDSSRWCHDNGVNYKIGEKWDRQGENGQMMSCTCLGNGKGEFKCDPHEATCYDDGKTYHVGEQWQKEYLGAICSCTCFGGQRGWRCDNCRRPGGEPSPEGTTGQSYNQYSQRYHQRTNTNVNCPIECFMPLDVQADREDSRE
Protocol: (§1) Fibronectin, collagen II, osteonectin, and osteopontin were separately combined at 0.1% (w/v) in 100 mM Tris and 5 mM CaCl2 with 500 μM peptide-PEG conjugates and 0.05 U/mL tTG. The reaction was allowed to proceed for 30 min at 37° C. and then stopped with the addition of iodoacetamide (1 mM final concentration). Control experiments without transglutaminse were also performed. The proteins were then separated using SDS-PAGE with either 7.5% fibronectin and collagen II) or 10% (osteonectin and osteopontin) gels, transferred to PVDF membranes which were then blocked with 2% BSA in TBS with 0.1% Tween (TBS-T). The modified proteins were probed with peroxidase conjugated ExtrAvidin. Detection of bound ExtrAvidin was accomplished using ECL Plus Western Blotting Detection Reagents and imaged on a Storm 860 imager (GE Healthcare Biosciences, Piscataway, N.J.). Band intensities were measured using ImageQuant (GE Healthcare Biosciences). Statistical analysis was performed using one-way ANOVA and Tukey's post-hoc test with 95% confidence intervals with SPSS (SPSS, Chicago, Ill.). Reactions of B72Q and B72K with osteonectin and osteopontin were dialyzed against 10 mM acetic acid and then analyzed by MALDI-TOF MS.

collagen II = target: T2, collagen II (Homo sapiens, UniProt P02458); test: as above; format: biochemical; settings: type II collagen, 500 μM conjugate, 0.05 U/mL tTG, 30 min at 37° C.
T2 construct: isolated by pepsin digestion, which yields primarily the triple helical region of collagen II; purchased Chondrex, Redmond, Wash
T2 sequence (P02458 201-1214 limits assumed): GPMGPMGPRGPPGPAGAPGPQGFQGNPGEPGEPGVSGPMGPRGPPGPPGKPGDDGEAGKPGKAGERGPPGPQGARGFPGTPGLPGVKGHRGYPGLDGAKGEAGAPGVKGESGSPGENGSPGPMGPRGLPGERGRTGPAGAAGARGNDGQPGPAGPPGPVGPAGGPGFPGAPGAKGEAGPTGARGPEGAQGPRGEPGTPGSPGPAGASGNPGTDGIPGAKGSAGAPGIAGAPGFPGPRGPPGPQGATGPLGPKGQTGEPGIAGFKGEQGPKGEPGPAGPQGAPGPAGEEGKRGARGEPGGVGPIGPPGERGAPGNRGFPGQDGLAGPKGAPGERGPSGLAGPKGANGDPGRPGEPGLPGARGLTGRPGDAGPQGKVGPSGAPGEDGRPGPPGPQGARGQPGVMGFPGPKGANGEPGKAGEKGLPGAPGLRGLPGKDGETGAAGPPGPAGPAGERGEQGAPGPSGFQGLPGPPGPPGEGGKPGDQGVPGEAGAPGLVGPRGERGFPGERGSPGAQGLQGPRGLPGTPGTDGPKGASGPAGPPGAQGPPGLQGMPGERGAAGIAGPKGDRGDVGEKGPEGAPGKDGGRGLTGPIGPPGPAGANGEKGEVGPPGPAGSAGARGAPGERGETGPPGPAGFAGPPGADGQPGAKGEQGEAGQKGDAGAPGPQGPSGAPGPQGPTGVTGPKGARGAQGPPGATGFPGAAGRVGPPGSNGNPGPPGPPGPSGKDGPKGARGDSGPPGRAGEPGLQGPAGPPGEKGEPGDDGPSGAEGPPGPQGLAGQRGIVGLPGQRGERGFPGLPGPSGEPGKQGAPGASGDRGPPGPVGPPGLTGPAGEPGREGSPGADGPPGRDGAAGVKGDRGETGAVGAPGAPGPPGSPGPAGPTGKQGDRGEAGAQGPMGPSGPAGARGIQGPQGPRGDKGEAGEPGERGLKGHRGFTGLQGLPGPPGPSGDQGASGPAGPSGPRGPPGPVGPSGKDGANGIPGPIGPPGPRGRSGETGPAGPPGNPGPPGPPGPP
Protocol: as §1

osteonectin = target: T3, osteonectin (Homo sapiens, UniProt P09486); test: as above; format: biochemical; settings: for reactivity / normalized band intensity on western blot: osteonectin, 500 μM conjugate, 0.05 U/mL tTG, 30 min at 37° C.; for number of conjugate molecules coupled per protein (MALDI-TOF): osteonectin with tTG
T3 construct: purchased Biodesign, Saco, Me
T3 sequence (P09486 18-303): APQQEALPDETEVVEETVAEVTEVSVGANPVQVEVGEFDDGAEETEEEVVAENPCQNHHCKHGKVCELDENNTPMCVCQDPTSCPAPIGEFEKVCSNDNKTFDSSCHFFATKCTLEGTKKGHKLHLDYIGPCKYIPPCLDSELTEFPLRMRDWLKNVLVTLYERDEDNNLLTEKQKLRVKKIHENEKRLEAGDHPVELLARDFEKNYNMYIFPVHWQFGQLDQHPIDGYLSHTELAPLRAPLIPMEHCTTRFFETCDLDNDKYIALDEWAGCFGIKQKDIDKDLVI
Protocol: as §1

osteopontin = target: T4, osteopontin (Homo sapiens, UniProt P10451); test: as above; format: biochemical; settings: for reactivity / normalized band intensity on western blot: osteopontin, 500 μM conjugate, 0.05 U/mL tTG, 30 min at 37° C.; for number of conjugate molecules coupled per protein (MALDI-TOF): osteopontin with tTG
T4 construct: purchased R&D Systems, Minneapolis, Minn
T4 sequence (P10451 17-314, species assumed): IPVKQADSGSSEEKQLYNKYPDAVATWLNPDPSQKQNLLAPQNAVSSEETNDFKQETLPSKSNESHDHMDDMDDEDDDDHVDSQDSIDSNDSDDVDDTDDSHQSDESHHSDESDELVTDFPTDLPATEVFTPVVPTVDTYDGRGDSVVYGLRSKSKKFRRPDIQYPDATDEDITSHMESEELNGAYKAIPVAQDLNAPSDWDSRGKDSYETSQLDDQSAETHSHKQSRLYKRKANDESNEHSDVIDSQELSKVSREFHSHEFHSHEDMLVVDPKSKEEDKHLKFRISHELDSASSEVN
Protocol: as §1

[4] = tested on: Fresh articular cartilage; settings: in the presence of enzyme
tTG = target: T5, tTG (UniProt P08587); settings: reactivity with the enzyme (tTG); cited from earlier work
T5 sequence (P08587 1-690): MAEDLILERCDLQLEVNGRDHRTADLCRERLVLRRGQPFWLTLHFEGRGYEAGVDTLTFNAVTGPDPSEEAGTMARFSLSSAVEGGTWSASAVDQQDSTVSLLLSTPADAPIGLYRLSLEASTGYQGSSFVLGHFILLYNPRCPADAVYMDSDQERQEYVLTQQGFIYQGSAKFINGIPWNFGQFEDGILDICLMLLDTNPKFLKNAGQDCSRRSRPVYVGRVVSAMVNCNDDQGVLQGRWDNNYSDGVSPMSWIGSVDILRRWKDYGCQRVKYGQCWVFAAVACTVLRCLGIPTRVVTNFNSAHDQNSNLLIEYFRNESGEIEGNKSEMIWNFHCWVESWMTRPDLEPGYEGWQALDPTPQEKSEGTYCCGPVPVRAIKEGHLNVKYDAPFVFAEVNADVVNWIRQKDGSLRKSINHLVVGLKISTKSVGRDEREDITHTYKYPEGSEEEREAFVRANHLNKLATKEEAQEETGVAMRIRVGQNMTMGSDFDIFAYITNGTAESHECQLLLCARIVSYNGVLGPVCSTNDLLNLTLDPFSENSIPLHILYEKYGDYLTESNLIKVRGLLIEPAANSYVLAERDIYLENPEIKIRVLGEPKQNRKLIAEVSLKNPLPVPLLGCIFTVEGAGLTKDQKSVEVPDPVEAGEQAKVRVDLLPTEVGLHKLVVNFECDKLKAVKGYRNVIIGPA

[5] = in the presence of tTG, 50 μM conjugate, 0.5 U/mL tTG, 30 min at 37° C.

Compound	coupling to cartilage (anti-biotin fluorescence) (cartilage sections; [5])	average depth of peptide coupling (cartilage)	reactivity / normalized band intensity on western blot (Fibronectin)	reactivity / normalized band intensity on western blot (collagen II)	reactivity / normalized band intensity on western blot (osteonectin)	reactivity / normalized band intensity on western blot (osteopontin)	other results
C[C@]12CCC(=O)C=C1CC[C@@H]1[C@@H]2[C@@H](O)C[C@@]2(C)[C@H]1CC[C@]2(O)C(=O)COC(=O)CCC(=O)NCC(=O)N[C@@H](Cc1ccccc1)C(=O)N[C@@H](CCCCN)C(=O)NCC(=O)O [TRIP-C, Hydrocortisone-GFKG prodrug] (X1-GFKG-OH)	–	–	–	–	–	–	hydrocortisone released from tissue-bound prodrug ([1]; 4 to 48 hours, 37° C., Buffer 1, bovine synovial fluid, human OA synovial fluid): statistical increase in the amount of hydrocortisone released; hydrocortisone hydrolysis from coupled prodrug, TRIP-C compared with TRIP-PC ([1]; any of the fluids utilized): no difference in hydrocortisone hydrolysis; T50% ([2]; 1.0 mM, 75% normal synovial fluid in Buffer 1, 37° C.): 11.1 min; times more rapid hydrolysis in synovial fluid than in Buffer 1 ([2]; 37° C.): 4
C[C@]12CCC(=O)C=C1CC[C@@H]1[C@@H]2[C@@H](O)C[C@@]2(C)[C@H]1CC[C@]2(O)C(=O)CO [hydrocortisone]	–	–	–	–	–	–	immunofluorescence on articular surface (anti-hydrocortisone) ([3]; 1.0 mM): no immunofluorescence was detected; nonspecific adsorption, hydrocortisone detected on the tissue surface [3]: minimal amount of hydrocortisone detected
Biotin-(EO)2-FKG-NH2 [B2K]	enzymatically crosslinked to the cartilage sections	13 μm	statistically greater than for B2Q or B72Q	statistically greater than for B2Q or B72Q; also recorded: reactive toward collagen II	statistically greater than for B2Q or B72Q	–	coupling to cartilage (anti-biotin fluorescence) (cartilage sections; in the absence of tTG): no observed fluorescence; depth of staining (cartilage; undigested cartilage tissue treated with tTG): 5.8 microns
Biotin-(EO)2-FOG-NH2 [B2O]	no coupling was detected	–	did not demonstrate crosslinking	did not demonstrate crosslinking	did not demonstrate crosslinking	did not demonstrate crosslinking	–
Biotin-(EO)2-GNNNLG-NH2 [B2N]	no coupling was detected	–	did not demonstrate crosslinking	did not demonstrate crosslinking	did not demonstrate crosslinking	did not demonstrate crosslinking	–
Biotin-(EO)2-GQQQLG-NH2 [B2Q]	enzymatically crosslinked to the cartilage sections	9.8 μm	–	less reactive toward collagen II in solution	–	significantly greater normalized band intensity than the B2K and B72K	coupling to cartilage (anti-biotin fluorescence) (cartilage sections; in the absence of tTG): no observed fluorescence
Biotin-FKG-HA	–	–	–	–	–	–	anti-biotin antibody staining of tissue surface [4]: intense staining
Biotin-PEG-FKG-NH2 [B72K]	enzymatically crosslinked to the cartilage sections	9.8 μm	statistically greater than for B2Q or B72Q	statistically greater than for B2Q or B72Q; also recorded: reactive toward collagen II	statistically greater than for B2Q or B72Q	–	number of conjugate molecules coupled per protein (MALDI-TOF) (osteopontin): one; number of conjugate molecules coupled per protein (MALDI-TOF) (osteonectin): up to 4
Biotin-PEG-G-NH2 [B72]	lack of fluorescence	–	did not demonstrate crosslinking	did not demonstrate crosslinking	did not demonstrate crosslinking	did not demonstrate crosslinking	–
Biotin-PEG-GQQQLG-NH2 [B72Q]	enzymatically crosslinked to the cartilage sections	8.6 μm	–	less reactive toward collagen II in solution	–	–	number of conjugate molecules coupled per protein (MALDI-TOF) (osteopontin): up to two; number of conjugate molecules coupled per protein (MALDI-TOF) (osteonectin): up to 3
FKG	bind to cartilage surfaces via tTG	–	–	–	–	–	specificity (tTG): 560 mM⁻¹ min⁻¹
GQQQLG (GQQQLG-NH2) [glutamine (acyl donor) peptide substrate of tTG]	bind to cartilage surfaces via tTG	–	–	–	–	–	specificity (tTG): 34.1 mM⁻¹ min⁻¹
